Experimental findings from article PMC9684079, “Pharmacological targeting of glutamatergic neurons within the brainstem for weight reduction” (Nature Metabolism, 2022) are described below.

What all share (assay): biochemical
Common to all, as to settings: read-out: % Inhibition

One assay has as its target T1, Angiotensin AT1 (Homo sapiens, UniProt P30556).
T1 construct: gene AGTR1
More on the design: Cerep/Eurofins selectivity panel, receptors, channels and transporters, per cent inhibition at 10 uM.

The target of the next assay is T2, Angiotensin AT2 (Homo sapiens, UniProt P50052).
T2 construct: gene AGTR2
More on the design: Cerep/Eurofins selectivity panel, receptors, channels and transporters, per cent inhibition at 10 uM.

A further assay concerns the target T3, Bradykinin B1 (Homo sapiens, UniProt P46663).
T3 construct: gene BDKRB1
Further details: Cerep/Eurofins selectivity panel, receptors, channels and transporters, per cent inhibition at 10 uM.

The target in the next assay is T4, Bradykinin B2 (Homo sapiens, UniProt P30411).
T4 construct: gene BDKRB2
More on the design: Cerep/Eurofins selectivity panel, receptors, channels and transporters, per cent inhibition at 10 uM.

The next assay deals with T5, Cholecystokinin CCK1 (Homo sapiens, UniProt P32238).
T5 construct: gene CCKAR
More on the design: Cerep/Eurofins selectivity panel, receptors, channels and transporters, per cent inhibition at 10 uM.

Another assay concerns the target T6, Cholecystokinin CCK2 (Homo sapiens, UniProt P32239).
T6 construct: gene CCKBR
More on the design: Cerep/Eurofins selectivity panel, receptors, channels and transporters, per cent inhibition at 10 uM.

The target in the next assay is T7, Dopamine D3 (Homo sapiens, UniProt P35462).
T7 construct: gene DRD3
Further details: Cerep/Eurofins selectivity panel, receptors, channels and transporters, per cent inhibition at 10 uM.

In a further assay the target is T8, Dopamine D4.2 (Homo sapiens, UniProt P21917).
T8 construct: gene DRD4; D4.2
Further details: Cerep/Eurofins selectivity panel, receptors, channels and transporters, per cent inhibition at 10 uM.

The target of another assay is T9, Estrogen Erα (Homo sapiens, UniProt P03372).
T9 construct: gene ESR1
Further details: Cerep/Eurofins selectivity panel, receptors, channels and transporters, per cent inhibition at 10 uM.

Another assay has as its target T10, GABAB1A (Homo sapiens, UniProt Q9UBS5).
T10 construct: gene GABBR1; isoform 1A
Further details: Cerep/Eurofins selectivity panel, receptors, channels and transporters, per cent inhibition at 10 uM.

A further assay deals with T11, Histamine H1 (Homo sapiens, UniProt P35367).
T11 construct: gene HRH1
Further details: Cerep/Eurofins selectivity panel, receptors, channels and transporters, per cent inhibition at 10 uM.

A further assay addresses T12, Histamine H2 (Homo sapiens, UniProt P25021).
T12 construct: gene HRH2
Further details: Cerep/Eurofins selectivity panel, receptors, channels and transporters, per cent inhibition at 10 uM.

Another assay has as its target T13, Histamine H3 (Homo sapiens, UniProt Q9Y5N1).
T13 construct: gene HRH3
Further details: Cerep/Eurofins selectivity panel, receptors, channels and transporters, per cent inhibition at 10 uM.

For the next assay, the target named is T14, Muscarinic M4 (Homo sapiens, UniProt P08173).
T14 construct: gene CHRM4
Further details: Cerep/Eurofins selectivity panel, receptors, channels and transporters, per cent inhibition at 10 uM.

A further assay concerns the target T15, Opiate δ1 (OP1, DOP) (Homo sapiens, UniProt P41143).
T15 construct: gene OPRD1
More on the design: Cerep/Eurofins selectivity panel, receptors, channels and transporters, per cent inhibition at 10 uM.

Another assay has as its target T16, Opiate κ(OP2, KOP) (Homo sapiens, UniProt P41145).
T16 construct: gene OPRK1
Further details: Cerep/Eurofins selectivity panel, receptors, channels and transporters, per cent inhibition at 10 uM.

Another assay addresses T17, Progesterone PR-B (Homo sapiens, UniProt P06401).
T17 construct: gene PGR; PR-B isoform
Further details: Cerep/Eurofins selectivity panel, receptors, channels and transporters, per cent inhibition at 10 uM.

In assay [1] the target is T18, Serotonin (5-Hydroxytryptamine) 5-HT3 (Homo sapiens, UniProt P46098).
T18 construct: gene HTR3A
Further details: Cerep/Eurofins selectivity panel, receptors, channels and transporters, per cent inhibition at 10 uM.

The next assay concerns the target T19, Tachykinin NK1 (Homo sapiens, UniProt P25103).
T19 construct: gene TACR1
Further details: Cerep/Eurofins selectivity panel, receptors, channels and transporters, per cent inhibition at 10 uM.

The target in assay [2] is T20, Transporter, Dopamine (DAT) (Homo sapiens, UniProt Q01959).
T20 construct: gene SLC6A3
Further details: Cerep/Eurofins selectivity panel, receptors, channels and transporters, per cent inhibition at 10 uM.

Another assay has as its target T21, Vasopressin V1a (Homo sapiens, UniProt P37288).
T21 construct: gene AVPR1A
More on the design: Cerep/Eurofins selectivity panel, receptors, channels and transporters, per cent inhibition at 10 uM.

A further assay deals with T22, Vasopressin V2 (Homo sapiens, UniProt P30518).
T22 construct: gene AVPR2
Further details: Cerep/Eurofins selectivity panel, receptors, channels and transporters, per cent inhibition at 10 uM.

In assay [3] the target is T23, Protein Tyrosine Kinase, ZA70 (ZAP-70) (Homo sapiens, UniProt P43403).
T23 construct: gene ZAP70
Further details: Cerep/Eurofins selectivity panel, enzymes, per cent inhibition at 10 uM.

In assay [4] the target is T24, Growth Hormone Secretogogue (GHS, Ghrelin) (Homo sapiens, UniProt Q92847).
T24 construct: gene GHSR
Further details: Cerep/Eurofins selectivity panel, receptors, channels and transporters, per cent inhibition at 10 uM.

Molecules are shown by their SMILES.

What is called inhibition is the relative decrease from the control value, in per cent.

T13 sequence (Q9Y5N1 whole entry): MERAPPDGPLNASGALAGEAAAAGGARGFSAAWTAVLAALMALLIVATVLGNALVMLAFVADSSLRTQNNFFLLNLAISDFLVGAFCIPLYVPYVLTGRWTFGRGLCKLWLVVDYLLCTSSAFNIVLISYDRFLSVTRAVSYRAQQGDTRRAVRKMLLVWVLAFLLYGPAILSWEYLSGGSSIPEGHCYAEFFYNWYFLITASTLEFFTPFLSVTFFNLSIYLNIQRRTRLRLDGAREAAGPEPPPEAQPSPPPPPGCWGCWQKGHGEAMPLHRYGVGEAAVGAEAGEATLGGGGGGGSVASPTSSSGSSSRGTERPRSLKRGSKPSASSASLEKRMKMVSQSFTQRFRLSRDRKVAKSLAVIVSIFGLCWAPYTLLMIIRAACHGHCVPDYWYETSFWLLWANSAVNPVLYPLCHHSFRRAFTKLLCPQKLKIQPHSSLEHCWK
T4 sequence (P30411 whole entry): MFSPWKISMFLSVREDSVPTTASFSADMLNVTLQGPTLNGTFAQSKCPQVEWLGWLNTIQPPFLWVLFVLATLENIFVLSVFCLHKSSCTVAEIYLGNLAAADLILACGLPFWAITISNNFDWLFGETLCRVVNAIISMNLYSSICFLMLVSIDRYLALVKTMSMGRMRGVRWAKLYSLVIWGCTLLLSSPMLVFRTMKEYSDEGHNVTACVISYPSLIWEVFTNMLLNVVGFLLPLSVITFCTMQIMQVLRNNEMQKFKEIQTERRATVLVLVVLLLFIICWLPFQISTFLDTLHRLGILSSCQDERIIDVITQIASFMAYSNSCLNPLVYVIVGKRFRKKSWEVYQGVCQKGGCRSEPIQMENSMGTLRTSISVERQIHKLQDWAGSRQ
T22 sequence (P30518 whole entry): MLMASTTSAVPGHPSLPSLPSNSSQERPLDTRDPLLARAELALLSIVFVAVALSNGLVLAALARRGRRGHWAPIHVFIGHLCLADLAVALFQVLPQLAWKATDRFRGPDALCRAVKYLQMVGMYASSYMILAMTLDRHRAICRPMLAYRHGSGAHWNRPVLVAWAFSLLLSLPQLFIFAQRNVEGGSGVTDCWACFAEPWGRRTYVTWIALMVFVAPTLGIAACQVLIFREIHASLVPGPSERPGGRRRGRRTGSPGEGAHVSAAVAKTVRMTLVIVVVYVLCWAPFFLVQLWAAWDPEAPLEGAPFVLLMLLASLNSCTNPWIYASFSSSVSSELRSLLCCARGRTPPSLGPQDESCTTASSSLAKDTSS
T23 sequence (P43403 whole entry): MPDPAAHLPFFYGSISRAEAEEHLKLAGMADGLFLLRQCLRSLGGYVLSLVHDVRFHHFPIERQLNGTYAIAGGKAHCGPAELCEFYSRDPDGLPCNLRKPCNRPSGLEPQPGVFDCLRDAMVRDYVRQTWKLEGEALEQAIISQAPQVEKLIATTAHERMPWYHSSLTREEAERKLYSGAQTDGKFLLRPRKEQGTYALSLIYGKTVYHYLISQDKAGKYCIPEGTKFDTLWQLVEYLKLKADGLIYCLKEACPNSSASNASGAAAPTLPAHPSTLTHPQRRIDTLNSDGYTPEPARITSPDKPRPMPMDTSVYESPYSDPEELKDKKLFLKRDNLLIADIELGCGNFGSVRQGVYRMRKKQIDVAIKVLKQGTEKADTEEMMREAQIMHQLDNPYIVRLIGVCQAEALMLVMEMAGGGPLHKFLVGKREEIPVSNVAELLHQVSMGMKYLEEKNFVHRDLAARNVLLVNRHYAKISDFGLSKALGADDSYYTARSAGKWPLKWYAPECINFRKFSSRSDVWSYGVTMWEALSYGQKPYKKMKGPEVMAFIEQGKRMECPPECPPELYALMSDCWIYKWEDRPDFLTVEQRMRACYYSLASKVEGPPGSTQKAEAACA
T2 sequence (P50052 whole entry): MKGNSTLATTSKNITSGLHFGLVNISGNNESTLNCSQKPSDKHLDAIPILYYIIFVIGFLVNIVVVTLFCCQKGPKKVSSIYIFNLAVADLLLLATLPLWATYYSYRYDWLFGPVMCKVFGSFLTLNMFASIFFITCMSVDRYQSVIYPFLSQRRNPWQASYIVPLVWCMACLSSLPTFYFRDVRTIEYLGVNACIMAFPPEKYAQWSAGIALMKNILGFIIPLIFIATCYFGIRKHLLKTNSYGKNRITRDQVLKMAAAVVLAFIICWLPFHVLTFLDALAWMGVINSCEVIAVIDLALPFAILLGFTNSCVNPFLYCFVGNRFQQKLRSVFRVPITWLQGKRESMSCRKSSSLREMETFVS
T10 sequence (Q9UBS5 whole entry, canonical isoform): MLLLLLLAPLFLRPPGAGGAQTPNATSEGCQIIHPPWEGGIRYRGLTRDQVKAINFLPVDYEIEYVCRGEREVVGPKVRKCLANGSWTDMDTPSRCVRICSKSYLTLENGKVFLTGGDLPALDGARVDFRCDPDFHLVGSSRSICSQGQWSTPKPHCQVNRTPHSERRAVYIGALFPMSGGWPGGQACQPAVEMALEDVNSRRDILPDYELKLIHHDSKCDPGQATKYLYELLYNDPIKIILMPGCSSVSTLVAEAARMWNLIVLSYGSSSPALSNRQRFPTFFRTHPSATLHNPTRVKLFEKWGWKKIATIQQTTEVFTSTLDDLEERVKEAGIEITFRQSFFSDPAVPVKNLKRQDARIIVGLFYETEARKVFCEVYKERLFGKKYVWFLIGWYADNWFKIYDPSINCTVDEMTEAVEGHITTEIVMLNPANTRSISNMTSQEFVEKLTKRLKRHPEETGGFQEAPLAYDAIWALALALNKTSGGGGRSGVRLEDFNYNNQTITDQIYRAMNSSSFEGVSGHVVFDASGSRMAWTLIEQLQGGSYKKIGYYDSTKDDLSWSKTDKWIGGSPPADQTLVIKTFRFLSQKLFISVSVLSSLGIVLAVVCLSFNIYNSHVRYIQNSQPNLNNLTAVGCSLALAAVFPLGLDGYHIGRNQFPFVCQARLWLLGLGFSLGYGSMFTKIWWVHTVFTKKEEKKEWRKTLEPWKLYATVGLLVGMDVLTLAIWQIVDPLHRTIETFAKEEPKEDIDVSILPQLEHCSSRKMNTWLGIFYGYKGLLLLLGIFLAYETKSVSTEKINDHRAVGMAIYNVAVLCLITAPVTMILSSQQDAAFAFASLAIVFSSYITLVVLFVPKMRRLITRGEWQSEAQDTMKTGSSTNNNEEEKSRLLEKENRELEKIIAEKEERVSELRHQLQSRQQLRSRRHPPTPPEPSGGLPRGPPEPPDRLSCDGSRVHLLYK
T10 sequence (O75899 whole entry partner, canonical isoform): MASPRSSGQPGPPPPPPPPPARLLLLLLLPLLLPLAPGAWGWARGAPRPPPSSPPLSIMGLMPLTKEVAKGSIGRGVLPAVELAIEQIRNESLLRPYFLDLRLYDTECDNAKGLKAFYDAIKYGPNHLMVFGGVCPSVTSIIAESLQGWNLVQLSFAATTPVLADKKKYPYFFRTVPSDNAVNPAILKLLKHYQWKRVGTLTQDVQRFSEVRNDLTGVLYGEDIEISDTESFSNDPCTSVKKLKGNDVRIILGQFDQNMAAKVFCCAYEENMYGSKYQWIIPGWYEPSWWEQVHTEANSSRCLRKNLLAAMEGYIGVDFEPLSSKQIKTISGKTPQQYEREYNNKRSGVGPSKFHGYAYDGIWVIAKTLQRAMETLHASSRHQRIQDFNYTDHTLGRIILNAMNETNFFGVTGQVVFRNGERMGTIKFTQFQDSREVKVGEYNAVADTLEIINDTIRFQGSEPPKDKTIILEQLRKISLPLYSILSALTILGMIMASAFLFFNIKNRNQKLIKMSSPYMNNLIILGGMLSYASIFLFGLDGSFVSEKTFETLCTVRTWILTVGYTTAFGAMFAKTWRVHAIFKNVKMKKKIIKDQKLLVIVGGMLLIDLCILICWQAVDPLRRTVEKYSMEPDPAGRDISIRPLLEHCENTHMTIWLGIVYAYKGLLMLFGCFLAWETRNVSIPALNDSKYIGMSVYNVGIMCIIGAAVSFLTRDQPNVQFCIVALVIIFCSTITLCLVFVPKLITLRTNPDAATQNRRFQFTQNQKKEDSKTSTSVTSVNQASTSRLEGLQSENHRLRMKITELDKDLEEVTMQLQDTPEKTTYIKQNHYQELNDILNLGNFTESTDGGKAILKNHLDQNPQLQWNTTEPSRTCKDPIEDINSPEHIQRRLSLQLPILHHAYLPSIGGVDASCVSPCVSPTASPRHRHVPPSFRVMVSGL
T6 sequence (P32239 whole entry): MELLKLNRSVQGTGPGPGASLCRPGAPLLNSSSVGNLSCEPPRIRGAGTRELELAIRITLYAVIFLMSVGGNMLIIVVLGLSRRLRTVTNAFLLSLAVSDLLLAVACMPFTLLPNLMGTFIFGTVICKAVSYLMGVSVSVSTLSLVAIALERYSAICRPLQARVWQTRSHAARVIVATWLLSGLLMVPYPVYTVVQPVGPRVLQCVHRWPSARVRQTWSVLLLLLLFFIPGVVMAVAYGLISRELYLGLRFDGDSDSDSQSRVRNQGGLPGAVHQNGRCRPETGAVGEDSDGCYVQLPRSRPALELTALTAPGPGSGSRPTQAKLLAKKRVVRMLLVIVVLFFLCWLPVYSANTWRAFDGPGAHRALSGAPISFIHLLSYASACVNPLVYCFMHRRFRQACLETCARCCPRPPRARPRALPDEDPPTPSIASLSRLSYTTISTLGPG
T3 sequence (P46663 whole entry): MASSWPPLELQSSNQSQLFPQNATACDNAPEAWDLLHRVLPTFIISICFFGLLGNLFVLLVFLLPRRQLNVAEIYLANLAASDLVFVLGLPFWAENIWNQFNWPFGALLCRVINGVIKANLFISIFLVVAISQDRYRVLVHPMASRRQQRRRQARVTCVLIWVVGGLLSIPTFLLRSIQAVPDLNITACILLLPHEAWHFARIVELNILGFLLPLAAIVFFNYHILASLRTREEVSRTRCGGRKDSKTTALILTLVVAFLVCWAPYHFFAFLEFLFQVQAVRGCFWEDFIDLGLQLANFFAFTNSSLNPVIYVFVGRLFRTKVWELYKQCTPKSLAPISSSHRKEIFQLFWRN

Regarding `C[C@]1(Nc2cnc(C(F)(F)F)cn2)CCC[C@@H]1NC(=O)c1ncccc1-n1nccn1` [CVN45502], the inhibition at 10 µM on Angiotensin AT1 was -1%; on Angiotensin AT2, 5%; on Bradykinin B1 it was 4%; on Bradykinin B2 it was -18%; on Cholecystokinin CCK1 it was -18%; at Cholecystokinin CCK2, 5%. Further, the inhibition at 10 µM on Dopamine D3 was -2%; at Dopamine D4.2 it was -9%; at Estrogen Erα, 2%; on GABAB1A, -8%; on Histamine H1, 2%; at Histamine H2, -14%. The inhibition at 10 µM on Histamine H3 is -4%; at Muscarinic M4, 10%; at Opiate δ1 (OP1, DOP), -4%; at Opiate κ(OP2, KOP), 3%; on Progesterone PR-B, 21%; in assay [1], -9%. Further, the inhibition at 10 µM is 12% on Tachykinin NK1; 4% in assay [2]; -14% at Vasopressin V1a; -4% on Vasopressin V2; -1% in assay [3]; -5% in assay [4].
